# Experimental data taken from patent US8236845B2, “Heterocyclyl-substituted-tetrahydro-naphthalen-amine derivatives, their preparation and use as medicaments” (Laboratorios del Dr. Esteve, S.A., priority 2007, dated 2012).
# Counter-ions that a name gives are not always drawn.
# Molecular target: T1, Cloned Human Serotonin Receptor, Subtype 7 (h5HT7) (Homo sapiens, UniProt P34969)
# T1 construct: purchased PerkinElmer 6120512; host or cells: CHO cells (membranes coated on Basic FlashPlate, Cat. SMP200)
# T1 sequence (P34969 whole entry): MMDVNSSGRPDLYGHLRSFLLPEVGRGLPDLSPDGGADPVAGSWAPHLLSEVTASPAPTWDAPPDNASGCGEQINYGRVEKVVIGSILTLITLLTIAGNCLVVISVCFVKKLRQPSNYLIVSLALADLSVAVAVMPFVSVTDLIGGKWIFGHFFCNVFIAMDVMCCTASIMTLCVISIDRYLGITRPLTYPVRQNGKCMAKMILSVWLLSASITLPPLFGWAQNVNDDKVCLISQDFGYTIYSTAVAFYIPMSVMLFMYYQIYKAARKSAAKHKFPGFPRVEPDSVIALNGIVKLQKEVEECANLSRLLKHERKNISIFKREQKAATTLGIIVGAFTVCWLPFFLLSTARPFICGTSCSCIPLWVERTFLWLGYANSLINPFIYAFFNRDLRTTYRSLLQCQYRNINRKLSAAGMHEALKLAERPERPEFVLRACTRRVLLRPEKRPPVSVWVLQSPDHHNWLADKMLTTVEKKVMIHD
# Assay: Radioligand binding assay, [125I]LSD, cloned human 5-HT7 receptor expressed in CHO cells
# Settings: radioligand [125I]LSD 0.82 nM
# Experimental: Radioligand binding assays were performed using the Cloned Human Serotonin Receptor, Subtype 7 (h5HT7), expressed in CHO cells, coated on Flashplate (Basic FlashPlate Cat.: SMP200) from PerkinElmer (Cat.: 6120512). The protocol assay was essentially the recommended protocol in the Technical Data Sheet by PerkinEmer Life and Analytical Sciences. The Mass membrane protein/well was typically 12 μg and the Receptor/well was about 9-10 fmoles. The Flashplate were let equilibrate at room temperature for one hour before the addition of the components of the assay mixture. The binding buffer was: 50 mM Tris-HCl, pH 7.4, containing 10 mM MgCl2, 0.5 mM EDTA and 0.5% BSA. The radioligand was [^125I]LSD at a final concentration of 0.82 nM. Nonspecific binding was determined with 50 μM of Clozapine. The assay volume was 25 μl. TopSeal-A were applied onto Flashplate microplates and they were incubated at room temperature for 240 minutes in darkness. The radioactivity were quantified by liquid scintillation spectrophotometry (Wallac 1450 Microbeta Trilux) with a count delay of 4 minutes prior to counting and a counting time of 30 seconds per well. Competition binding data were analyzed by using the LIGAND program (Munson and Rodbard, LIGAND: A versatile, computerized approach for characterization of ligand-binding systems. Anal. Biochem. 107: 220-239, 1980) and assays were performed in triplicate determinations for each point.
Compound,Ki,IC50
"CCCN(C(C)C)[C@H]1CCc2c(cccc2-c2c(C)nn(C)c2C)C1 [AC, (2S)-Isopropyl-propyl-[5-(1,3,5-trimethyl-1H-pyrazol-4-yl)-1,2,3,4-tetrahydro-naphthalen-2-yl]-amine]",0.227 ± 0.0113 µM,–
"COc1ccccc1-c1cccc2c1CCC(N(C)C)C2 (centres unmarked) [AF, [5-(2-Methoxy-phenyl)-1,2,3,4-tetrahydro-naphthalen-2-yl]-dimethyl-amine]",0.0258 ± 0.0046 µM,–
"COc1cccc(Cl)c1-c1cccc2c1CCC(N(C)C)C2 (centres unmarked) [AH, [5-(2-Chloro-6-methoxy-phenyl)-1,2,3,4-tetrahydro-naphthalen-2-yl]-dimethyl-amine]",0.0116 ± 0.003 µM,–
"COc1ncccc1-c1cccc2c1CCC(N(C)C)C2 (centres unmarked) [AI, [5-(2-Methoxy-pyridin-3-yl)-1,2,3,4-tetrahydro-naphthalen-2-yl]-dimethyl-amine]",0.0616 ± 0.0058 µM,–
"Cc1nn(C)c(C)c1-c1cccc2c1CC[C@H](N(C)C(C)C)C2 [Example AB, (2S)-Isopropyl-methyl-[5-(1,3,5-trimethyl-1H-pyrazol-4-yl)-1,2,3,4-tetrahydro-naphthalen-2-yl]-amine]",0.644 ± 0.0635 µM,–
"Cc1nn(C)c(C)c1-c1cccc2c1CC[C@@H](N(C)C)C2 [Example J, (2R)-Dimethyl-[5-(1,3,5-trimethyl-1H-pyrazol-4-yl)-1,2,3,4-tetrahydro-naphthalen-2-yl]-amine dihydrochloride]",–,0.178 µM
"Cc1n[nH]c(C)c1-c1cccc2c1CC[C@H](N(C)C)C2 [Example L, (2S)-[5-(3,5-Dimethyl-1H-pyrazol-4-yl)-1,2,3,4-tetrahydro-naphthalen-2-yl]-dimethyl-amine dihydrochloride]",–,0.0184 ± 0.0025 µM
"CCN(CC)C1CCc2c(cccc2-c2c(C)nn(C)c2C)C1 (centres unmarked) [Example S, Diethyl-[5-(1,3,5-trimethyl-1H-pyrazol-4-yl)-1,2,3,4-tetrahydro-naphthalen-2-yl]-amine]",0.13 µM,–
"Cc1nn(C)c(C)c1-c1cccc2c1CCC(N1CCCC1)C2 (centres unmarked) [O, 1,3,5-Trimethyl-4-(6-pyrrolidin-1-yl-5,6,7,8-tetrahydro-naphthalen-1-yl)-1H-pyrazole]",0.0963 ± 0.002 µM,–
"CCCN(C)C1CCc2c(cccc2-c2c(C)nn(C)c2C)C1 (centres unmarked) [R, Methyl-propyl-[5-(1,3,5-trimethyl-1H-pyrazol-4-yl)-1,2,3,4-tetrahydro-naphthalen-2-yl]-amine]",0.0091 ± 0.0015 µM,–
"CCN(C)C1CCc2c(cccc2-c2c(C)nn(C)c2C)C1 (centres unmarked) [T, Ethyl-methyl-[5-(1,3,5-trimethyl-1H-pyrazol-4-yl)-1,2,3,4-tetrahydro-naphthalen-2-yl]-amine]",0.0103 ± 0.0004 µM,–
